Test results published in ChEMBL document CHEMBL1908284, “Rational use of in vitro P-glycoprotein assays in drug discovery” (J Pharmacol Exp Ther, 2001).

Legend:
[1] = molecular target: T1, ATP-dependent translocase ABCB1 (Homo sapiens, UniProt P08183); conditions: dog;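 on Ratio ATPase activity: Compound-stimulated ATPase activity measured in membrane preparations of MDR1-expressing Sf9 cells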
Description: (§1) Apparent permeability (Papp) from apical to basolateral side determined in MDR1-MDCKII cells

[2] = molecular target: T1, ATP-dependent translocase ABCB1; conditions: dog; remark: listed apart in the source
Description: (§2) Apparent permeability (Papp) from basolateral to apical side determined in MDR1-MDCKII cells

[3] = molecular target: T2, ATP-dependent translocase ABCB1 (MDR1) (Homo sapiens, UniProt P08183); test: in vitro; conditions: dog
T2 sequence (P08183 whole entry): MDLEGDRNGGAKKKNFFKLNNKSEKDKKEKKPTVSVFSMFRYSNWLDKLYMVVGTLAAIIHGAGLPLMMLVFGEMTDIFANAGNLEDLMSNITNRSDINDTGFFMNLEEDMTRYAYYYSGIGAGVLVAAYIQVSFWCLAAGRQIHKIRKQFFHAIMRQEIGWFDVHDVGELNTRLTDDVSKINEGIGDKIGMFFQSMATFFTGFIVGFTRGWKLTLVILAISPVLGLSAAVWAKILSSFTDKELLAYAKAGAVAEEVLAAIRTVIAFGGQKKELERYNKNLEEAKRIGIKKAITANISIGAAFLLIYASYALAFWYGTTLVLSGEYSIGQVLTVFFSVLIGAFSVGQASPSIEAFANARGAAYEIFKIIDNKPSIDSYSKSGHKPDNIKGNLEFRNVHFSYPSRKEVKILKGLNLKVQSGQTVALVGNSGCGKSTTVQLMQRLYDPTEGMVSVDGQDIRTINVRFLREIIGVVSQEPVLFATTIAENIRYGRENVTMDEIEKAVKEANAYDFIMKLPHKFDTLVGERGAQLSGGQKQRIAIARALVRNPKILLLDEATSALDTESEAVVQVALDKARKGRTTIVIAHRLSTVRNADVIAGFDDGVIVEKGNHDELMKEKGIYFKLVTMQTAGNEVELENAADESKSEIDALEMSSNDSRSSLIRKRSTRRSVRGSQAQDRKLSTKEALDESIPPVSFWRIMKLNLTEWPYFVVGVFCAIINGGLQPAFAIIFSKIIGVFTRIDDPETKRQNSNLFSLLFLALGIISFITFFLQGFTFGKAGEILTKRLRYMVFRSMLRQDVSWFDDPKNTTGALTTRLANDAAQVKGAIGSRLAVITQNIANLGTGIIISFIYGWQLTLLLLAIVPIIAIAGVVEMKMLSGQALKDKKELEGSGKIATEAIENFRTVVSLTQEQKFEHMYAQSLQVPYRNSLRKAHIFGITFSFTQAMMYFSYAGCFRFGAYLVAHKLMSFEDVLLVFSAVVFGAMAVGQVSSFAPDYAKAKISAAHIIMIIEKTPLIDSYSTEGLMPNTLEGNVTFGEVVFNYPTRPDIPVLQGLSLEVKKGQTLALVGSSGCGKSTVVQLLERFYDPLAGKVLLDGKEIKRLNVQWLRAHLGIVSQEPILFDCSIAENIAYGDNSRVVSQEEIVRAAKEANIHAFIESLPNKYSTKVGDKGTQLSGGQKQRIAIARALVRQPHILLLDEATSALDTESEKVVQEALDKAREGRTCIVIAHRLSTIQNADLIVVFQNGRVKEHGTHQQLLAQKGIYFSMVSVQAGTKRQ
Description: as §1

[4] = molecular target: T2, ATP-dependent translocase ABCB1 (MDR1); test: in vitro; conditions: dog; remark: listed apart in the source
Description: as §2

[5] = molecular target: T1, ATP-dependent translocase ABCB1; conditions: spodoptera frugiperda, sf9, 20 µM
Description: Drug-stimulated Pgp ATPase activity ratio determined in MDR1-Sf9 cell membranes with test compound at a concentration of 20uM

[6] = molecular target: T2, ATP-dependent translocase ABCB1 (MDR1); test: in vitro; conditions: dog; remark: listed apart in the source
Description: Ratio of apparent permeability from basolateral to apical side over apical to basolateral side determined in MDR1-MDCKII cells

[7] = molecular target: T1, ATP-dependent translocase ABCB1; test: TP_TRANSPORTER: ATP hydrolysis in MDR1-expressing Sf9 cells; format: functional

T1 sequence (P08183 whole entry): as above

Row | SMILES | Papp ([1]; mdr1-mdckii) [nm/s] | Papp ([2]; mdr1-mdckii) [nm/s] | Papp A→B ([3]; MDCK-MDR1, Papp) [nm/s] | Papp B→A ([4]; MDCK-MDR1, Papp) [nm/s] | Ratio_ATPase activity [5] | efflux ratio ([6]; MDCK-MDR1, Ratio_Papp) | Activity [7] | Papp A→B ([3]; MDCK-MDR1) [nm/s] | Papp B→A ([4]; MDCK-MDR1) [nm/s] | efflux ratio ([6]; MDCK-MDR1) | Papp ([1]; MDCK-MDR1) [nm/s] | Papp ([2]; MDCK-MDR1) [nm/s]
1 | CC(C)CN(C[C@@H](O)[C@H](Cc1ccccc1)NC(=O)O[C@H]1CCOC1)S(=O)(=O)c1ccc(N)cc1 | 21.7 | 703 | 37.3 | 987 |  |  |  |  |  |  |  | 
2 | OC[C@@H](O)[C@@H](O)[C@H](O)[C@H](O)CO [MANNITOL] | 11.3 | 9.15 | 11.3 | 9.15 | 1.25 | 0.82 |  |  |  |  |  | 
3 | Cc1ncc2n1-c1ccc(Cl)cc1C(c1ccccc1F)=NC2 [MIDAZOLAM] |  |  |  |  | 3.82 |  | substrate [+] | 701 | 564 | 0.81 |  | 
4 | CN(C)C(=O)Oc1cccc([N+](C)(C)C)c1.[Br-] [NEOSTIGMINE BROMIDE] |  |  |  |  | 1.06 |  | is not a substrate [-] | 7.58 | 13.7 | 1.81 |  | 
5 | COC(=O)C1=C(C)NC(C)=C(C(=O)OCCN(C)Cc2ccccc2)C1c1cccc([N+](=O)[O-])c1 (stereo unspecified) [NICARDIPINE] |  |  | 614 | 661 | 5.39 | 1.08 | substrate [+] |  |  |  |  | 
6 | CCOC(=O)C1=C(C)NC(C)=C(C(=O)OC)C1c1cccc([N+](=O)[O-])c1 (stereo unspecified) [NITRENDIPINE] |  |  | 604 | 483 | 3.22 | 0.8 | substrate [+] |  |  |  |  | 
7 | CC(=O)O[C@H]1C(=O)[C@@]2(C)[C@H]([C@H](OC(=O)c3ccccc3)[C@]3(O)C[C@H](OC(=O)[C@H](O)[C@@H](NC(=O)c4ccccc4)c4ccccc4)C(C)=C1C3(C)C)[C@]1(OC(C)=O)CO[C@@H]1C[C@@H]2O [PACLITAXEL] |  |  | < 1.25 | 135 | 2.63 | > 108 | substrate [+] |  |  |  |  | 
8 | CC(C)NCC(O)COc1cccc2ccccc12 (stereo unspecified) [PROPRANOLOL] |  |  | 496 | 514 | 1.33 | 1.04 |  |  |  |  | 496 | 514
9 | COc1ccc(C[C@H](N)C(=O)N[C@H]2[C@@H](O)[C@H](n3cnc4c(N(C)C)ncnc43)O[C@@H]2CO)cc1 [PUROMYCIN] |  |  | 11.5 | 35.6 | 1.21 | 3.1 | is not a substrate [-] |  |  |  |  | 
10 | COc1cc(Cc2cnc(N)nc2N)cc(OC)c1OC [TRIMETHOPRIM] |  |  | 73.9 | 267 | 3.61 | 3.61 | substrate [+] |  |  |  |  | 
11 | CC[C@]1(O)C[C@H]2CN(CCc3c([nH]c4ccccc34)[C@@](C(=O)OC)(c3cc4c(cc3OC)N(C=O)[C@H]3[C@@](O)(C(=O)OC)[C@H](OC(C)=O)[C@]5(CC)C=CCN6CC[C@]43[C@@H]65)C2)C1 [VINCRISTINE] |  |  | 2.36 | 14.9 | 1.46 | 6.31 | is not a substrate [-] |  |  |  |  | 
12 | CCC1=C[C@@H]2CN(C1)Cc1c([nH]c3ccccc13)[C@@](C(=O)OC)(c1cc3c(cc1OC)N(C)[C@H]1[C@@](O)(C(=O)OC)[C@H](OC(C)=O)[C@]4(CC)C=CCN5CC[C@]31[C@@H]54)C2 [VINORELBINE] |  |  | 2.52 | 176 | 1.15 | 69.8 | is not a substrate [-] |  |  |  |  | 
